Assay results as given in US20260083865A1, “PROSTATE SPECIFIC MEMBRANE ANTIGEN (PSMA) LIGANDS AND USE THEREOF” (priority 2022, published 2026).
Read-outs that look alike come from different tables or passages of the source. Numbered stars: 1 amine (or outer) side, 2 acyl side, 3 side chain; on linkers, the order of the positions; unused ones are H or OH. Bridge positions count the residues as written; N and C are the ends. Square brackets hold non-standard residues; d marks the D form. Side chains are listed from the residue outwards. Peptide text beside a SMILES is read from it. * marks the point of attachment. DOTA = O=C(O)CN1CCN(CC(=O)O)CCN(CC(=O)*)CCN(CC(=O)O)CC1; Phe(3-Cl) = N[C@@H](Cc1cccc(Cl)c1)C(=O)O; Phe(4-Cl) = N[C@@H](Cc1ccc(Cl)cc1)C(=O)O; Arg(Me) = CNC(=N)NCCC[C@H](N)C(=O)O; Lys(Me2) = CN(C)CCCC[C@H](N)C(=O)O; X1 = O=C(CC1CCN([*:1])CC1)[*:2]; Cit = NC(=O)NCCC[C@H](N)C(=O)O; NMeK = CN[C@@H](CCCCN)C(=O)O; Tle = CC(C)(C)[C@H](N)C(=O)O; 4Abz = Nc1ccc(C(=O)O)cc1; AEEA = NCCOCCOCC(=O)O; Aib = CC(C)(N)C(=O)O

Columns and labels:
[1] = molecular target: T1, Fc-fusion protein of human PSMA (hPSMA-Fc) (Homo sapiens, UniProt Q04609); assay: Surface plasmon resonance assay (Biacore T200, single cycle kinetic); type: binding; details: hPSMA-Fc, 25° C.; for Kd: read-out: pKD CAT (converted)
T1 construct: purchased Acro Biosystems PSA-H5264
Outline: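 hPSMA-Fc was captured (~1000 RU) on an Fc-binding-peptide CM5 chip, and compounds were run in single cycle kinetic mode at 25° C in HBST with 0.1% DMSO. Double-blank-corrected sensorgrams were fitted to a 1:1 Langmuir model to give KD, reported as pKD.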

[2] = molecular target: T2, PSMA-expressing C4-2 cells (Homo sapiens, UniProt Q04609); assay: FACS binding assay (competition with 50 nM PSM-0183); details: for IC50: read-out: pIC50 [C4-2] CAT (converted)
T2 construct: PSMA-expressing C4-2 cells (ATCC, Cat. No. CRL-3314) were cultured in RPMI-1640; host or cells: C4-2 cells
Outline: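 C4-2 cells were incubated 1 h at 4 °C with 50 nM AF488-labelled peptide PSM-0183 plus increasing test compound concentrations, then washed twice in ice-cold buffer. Median fluorescence in the AF488 channel was read by flow cytometry. IC50/pIC50 was derived by 4PL fitting of MFI versus concentration.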

[3] = SPR, single cycle kinetic, category
[4] = FACS binding, C4-2 cells, competition with 50 nM PSM-0183, category
[5] = pKD category for PSMA SPR activity assay
[6] = pIC50 category of FACS binding, C4-2 cells
[7] = FACS binding, PSMA-expressing C4-2 cells, pIC50 category

T2 sequence (Q04609 whole entry): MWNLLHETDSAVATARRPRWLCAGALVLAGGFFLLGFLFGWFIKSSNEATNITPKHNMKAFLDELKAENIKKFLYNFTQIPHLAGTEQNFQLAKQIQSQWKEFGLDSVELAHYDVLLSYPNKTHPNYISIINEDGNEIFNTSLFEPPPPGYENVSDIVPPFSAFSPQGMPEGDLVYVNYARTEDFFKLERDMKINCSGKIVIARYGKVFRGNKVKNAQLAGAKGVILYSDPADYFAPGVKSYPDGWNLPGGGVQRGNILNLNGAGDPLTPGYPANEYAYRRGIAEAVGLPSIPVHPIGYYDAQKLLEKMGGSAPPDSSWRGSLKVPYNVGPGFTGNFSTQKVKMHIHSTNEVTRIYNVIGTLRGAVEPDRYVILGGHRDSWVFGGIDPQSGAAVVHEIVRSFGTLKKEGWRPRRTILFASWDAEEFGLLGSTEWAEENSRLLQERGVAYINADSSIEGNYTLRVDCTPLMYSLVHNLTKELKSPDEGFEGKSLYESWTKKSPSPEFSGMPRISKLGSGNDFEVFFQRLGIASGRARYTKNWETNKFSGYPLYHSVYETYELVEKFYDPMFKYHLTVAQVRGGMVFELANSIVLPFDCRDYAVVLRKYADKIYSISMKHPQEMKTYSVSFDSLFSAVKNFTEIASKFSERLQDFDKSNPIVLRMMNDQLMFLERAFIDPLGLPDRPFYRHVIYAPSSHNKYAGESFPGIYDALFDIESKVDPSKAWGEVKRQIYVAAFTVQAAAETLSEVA
T1 sequence (Q04609 44-750 limits assumed): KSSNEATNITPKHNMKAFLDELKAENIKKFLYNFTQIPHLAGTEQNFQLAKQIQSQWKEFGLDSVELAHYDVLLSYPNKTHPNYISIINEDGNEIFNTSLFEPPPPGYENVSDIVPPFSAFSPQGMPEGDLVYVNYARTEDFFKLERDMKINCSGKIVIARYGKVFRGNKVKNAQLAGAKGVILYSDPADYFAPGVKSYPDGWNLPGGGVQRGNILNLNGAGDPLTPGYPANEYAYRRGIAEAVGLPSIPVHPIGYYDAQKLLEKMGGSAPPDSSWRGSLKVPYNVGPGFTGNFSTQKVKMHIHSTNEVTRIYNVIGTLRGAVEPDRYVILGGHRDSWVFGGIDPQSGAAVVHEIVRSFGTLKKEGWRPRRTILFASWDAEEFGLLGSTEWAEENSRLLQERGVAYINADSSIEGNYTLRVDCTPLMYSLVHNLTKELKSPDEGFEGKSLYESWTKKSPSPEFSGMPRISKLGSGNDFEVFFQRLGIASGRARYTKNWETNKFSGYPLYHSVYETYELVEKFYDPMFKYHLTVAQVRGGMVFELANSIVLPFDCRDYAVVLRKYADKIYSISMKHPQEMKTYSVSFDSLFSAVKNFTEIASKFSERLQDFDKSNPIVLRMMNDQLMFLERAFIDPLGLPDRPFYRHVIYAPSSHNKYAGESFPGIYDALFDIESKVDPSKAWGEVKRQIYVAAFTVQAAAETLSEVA

## CNC(=N)NCCC[C@@H]1NC(=O)[C@H](CCCCN(C)C)NC(=O)[C@@H](NC(=O)[C@H](Cc2ccc(Cl)cc2)NC(=O)C(C)(C)NC(=O)[C@@H](NC(=O)CC2CCN(C(=O)CN3CCN(CC(=O)O)CCN(CC(=O)O)CCN(CC(=O)O)CC3)CC2)[C@@H](C)O)CSSC[C@@H](C(=O)N[C@H](C(=O)N[C@H](C(N)=O)[C@@H](C)O)C(C)(C)C)NC(=O)[C@H](CC(N)=O)NC(=O)C(C)(C)NC1=O [PSM-0203, DOTA-Cmp-Thr-Aib-Pcf-[Cys-KMe2-Arg(Me)-Aib-Asn-Cys]-Tle-Thr-NH2] ({DOTA}-[X1]T[Aib][Phe(4-Cl)]C[Lys(Me2)][Arg(Me)][Aib]NC[Tle]T-NH2; disulfide 5-10)
[1]; [3]
  Kd: < 12.6 nM
[2]; [4]
  IC50: < 200 nM

## C[C@@H](O)[C@H](NC(=O)[C@@H](NC(=O)[C@@H]1CSSC[C@H](NC(=O)[C@H](Cc2ccc(Cl)cc2)NC(=O)C(C)(C)NC(=O)[C@@H](NC(=O)CC2CCN(C(=O)CN3CCN(CC(=O)O)CCN(CC(=O)O)CCN(CC(=O)O)CC3)CC2)[C@@H](C)O)C(=O)N(C)[C@@H](CCCCN)C(=O)N[C@@H](CCCNC(=N)N)C(=O)NC(C)(C)C(=O)N[C@@H](CC(N)=O)C(=O)N1)C(C)(C)C)C(N)=O [PSM-0548, DOTA-Cmp-Thr-Aib-Pcf-[Cys-Nmk-Arg-Aib-Asn-Cys]-Tle-Thr-NH2] ({DOTA}-[X1]T[Aib][Phe(4-Cl)]C[NMeK]R[Aib]NC[Tle]T-NH2; disulfide 5-10)
[1]; [5]
  Kd: 12.6 to 126 nM
[2]; [6]
  IC50: 200 to 1260 nM

## C[C@@H](O)[C@H](NC(=O)[C@@H](NC(=O)[C@@H]1CSSC[C@H](NC(=O)[C@H](Cc2ccccc2)NC(=O)C(C)(C)NC(=O)CC2CCN(C(=O)CN3CCN(CC(=O)O)CCN(CC(=O)O)CCN(CC(=O)O)CC3)CC2)C(=O)N[C@@H](CCCCN)C(=O)N[C@@H](CCCNC(=N)N)C(=O)NC(C)(C)C(=O)N[C@@H](CC(N)=O)C(=O)N1)C(C)(C)C)C(N)=O [PSM-0507, DOTA-Cmp-Aib-Pho-[Cys-Lys-Arg-Aib-Asn-Cys]-Tle-Thr-NH2] ({DOTA}-[X1][Aib]FCKR[Aib]NC[Tle]T-NH2; disulfide 4-9)
[1]; [5]
  Kd: 12.6 to 126 nM
[2]; [6]
  IC50: < 200 nM

## C[C@@H](O)[C@H](NC(=O)[C@@H](NC(=O)[C@@H]1CSSC[C@H](NC(=O)[C@H](Cc2ccccc2)NC(=O)C(C)(C)NC(=O)c2ccc(NC(=O)CN3CCN(CC(=O)O)CCN(CC(=O)O)CCN(CC(=O)O)CC3)cc2)C(=O)N[C@@H](CCCCN)C(=O)N[C@@H](CCCNC(=N)N)C(=O)NC(C)(C)C(=O)N[C@@H](CC(N)=O)C(=O)N1)C(C)(C)C)C(N)=O [PSM-0316, DOTA-Pab-Aib-Phe-[Cys-Lys-Arg-Aib-Asn-Cys]-Tle-Thr-NH2] ({DOTA-4Abz}-[Aib]FCKR[Aib]NC[Tle]T-NH2; disulfide 3-8)
[1]; PSMA SPR assay, pKD category
  Kd: < 12.6 nM
[2]; [7]
  IC50: < 200 nM

## CCCC[C@H](NC(=O)[C@@H]1CSSC[C@H](NC(=O)[C@H](Cc2ccccc2)NC(=O)[C@H](C)NC(=O)[C@@H](NC(C)=O)[C@@H](C)O)C(=O)N[C@@H](CCCCN)C(=O)N[C@@H](CCCNC(=N)N)C(=O)N[C@@H](C)C(=O)N[C@@H](CC(N)=O)C(=O)N1)C(=O)N[C@H](C(=O)N[C@H](CC(=O)O)C(N)=O)[C@@H](C)O (single isomer, unassigned) [PSM-0436, Ac-Thr-Ala-phe-[Cys-Lys-Arg-Ala-Asn-Cys]-Nle-Thr-Asp-NH2]
[1]; [5]
  Kd: > 501 nM
[2]; [6]
  IC50: > 3160 nM

## nBuCAyl-Thr-Aib-Phe-[Cys-Lys-Arg-Aib-Asn-Cys]-Tle-Thr-Cmp-lys(InDOTA)-NH2 [PSM-0214]
[1]; [3]
  pKD CAT: A (pKD values >7.9)
[2]; [4]
  pIC50 [C4-2] CAT: A (pIC50 values >6.7)

## CC(=O)N[C@H](C(=O)NC(C)(C)C(=O)N[C@@H](Cc1cccc(Cl)c1)C(=O)N[C@H]1CSSC[C@@H](C(=O)N[C@H](C(=O)N[C@H](C(N)=O)[C@@H](C)O)C(C)(C)C)NC(=O)[C@H](CC(N)=O)NC(=O)[C@H](CCCCNC(=O)COCCOCCNC(=O)CN2CCN(CC(=O)O)CCN(CC(=O)O)CCN(CC(=O)O)CC2)NC(=O)[C@H](CCCNC(N)=O)NC(=O)[C@H](CCCCN)NC1=O)[C@@H](C)O [PSM-0284, Ac-Thr-Aib-Mcf-[Cys-Lys-Cit-Lys(DOTA-020c)-Asn-Cys]-Tle-Thr-NH2] (Ac-T[Aib][Phe(3-Cl)]CK[Cit]K([AEEA-DOTA])NC[Tle]T-NH2; disulfide 4-9)
[1]; PSMA SPR assay, pKD category
  Kd: 12.6 to 126 nM
[2]; [7]
  IC50: < 200 nM
